Laboratory results from patent US20240384268A1, “Oligonucleotides” (Hudson Institute of Medical Research, priority 2021, published 2024).

What follows are sequences tested against cGAS (Homo sapiens, UniProt Q8N884) (assay: ISD70-driven IP-10 (and IFN-β) production in THP-1 cells, ELISA). Conditions: MOE-modified ASO at 100 nM; averaged IP-10 levels relative to ISD70 condition.
Assay type: cell-based
Set-up: endogenous in cells; host or cells: THP-1 (undifferentiated)

Chain of cGAS (Q8N884 whole entry): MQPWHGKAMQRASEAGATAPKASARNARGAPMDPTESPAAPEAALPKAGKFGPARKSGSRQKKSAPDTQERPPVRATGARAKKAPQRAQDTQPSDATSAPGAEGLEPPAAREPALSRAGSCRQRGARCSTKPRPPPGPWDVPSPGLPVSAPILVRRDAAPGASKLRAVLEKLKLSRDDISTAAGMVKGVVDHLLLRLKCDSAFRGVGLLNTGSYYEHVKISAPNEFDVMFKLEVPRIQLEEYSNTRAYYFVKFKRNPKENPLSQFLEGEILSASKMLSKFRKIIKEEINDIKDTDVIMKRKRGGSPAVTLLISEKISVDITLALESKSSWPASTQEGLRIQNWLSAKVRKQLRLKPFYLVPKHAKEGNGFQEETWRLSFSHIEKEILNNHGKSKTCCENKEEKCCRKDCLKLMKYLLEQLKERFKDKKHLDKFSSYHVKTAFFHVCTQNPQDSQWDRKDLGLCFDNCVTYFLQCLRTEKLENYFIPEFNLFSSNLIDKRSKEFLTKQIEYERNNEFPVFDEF

Row | Sequence | cGAS 100 nM
1 | AACACTTCGTGGGGTCCTTT (antisense; 2'-MOE modified, pattern not given here) [HPRT-664 MOE] | 0.615
2 | AATCCGCCCAAAGGGAACTG (antisense; 2'-MOE modified, pattern not given here) [HPRT-1027 MOE] | 0.494
3 | ACAACCCCTTTCACCATCCC (antisense; 2'-MOE modified, pattern not given here) [MB21D1-689 MOE] | 0.658
4 | ACAGTGTTGAGATACTCGGG (antisense; 2'-MOE modified, pattern not given here) [EGFR-3652 MOE] | 0.297
5 | ACCCACTTGGCAGACCATCA (antisense; 2'-MOE modified, pattern not given here) [CTNN2B-1575 MOE] | 0.571
6 | ACTGACTGTCTTGAGGGTTC (antisense; 2'-MOE modified, pattern not given here) [MB21D1-1483 MOE] | 0.221
7 | AGATCTGGCAGCCCATCAAC (antisense; 2'-MOE modified, pattern not given here) [CTNN2B-2516 MOE] | 0.677
8 | AGGTCTTGGCTTCGTGGAGC (antisense; 2'-MOE modified, pattern not given here) [MB21D1-522 MOE] | 0.118
9 | ATCCAACACTTCGTGGGGTC (antisense; 2'-MOE modified, pattern not given here) [HPRT-668 MOE] | 0.744
10 | ATGTCCCCTGTTGACTGGTC (antisense; 2'-MOE modified, pattern not given here) [HPRT-489 MOE] | 0.574
11 | ATGTCCCGCCACTGGATGCT (antisense; 2'-MOE modified, pattern not given here) [EGFR-727 MOE] | 0.549
12 | ATGTGATGGCCTCCCATCTC (antisense; 2'-MOE modified, pattern not given here) [HPRT-333 MOE] | 0.439
13 | CAACACTTCGTGGGGTCCTT (antisense; 2'-MOE modified, pattern not given here) [HPRT-665 MOE] | 0.686
14 | CAAGGCCCTTCGCACTTCTT (antisense; 2'-MOE modified, pattern not given here) [EGFR-1225 MOE] | 0.490
15 | CAATGTGATGGCCTCCCATC (antisense; 2'-MOE modified, pattern not given here) [HPRT-335 MOE] | 0.362
16 | CACCCACTTGGCAGACCATC (antisense; 2'-MOE modified, pattern not given here) [CTNN2B-1576 MOE] | 0.658
17 | CAGATAGCACCTTCAGCACT (antisense; 2'-MOE modified, pattern not given here) [CTNN2B-1294 MOE] | 0.388
18 | CCAACACTTCGTGGGGTCCT (antisense; 2'-MOE modified, pattern not given here) [HPRT-666 MOE] | 0.557
19 | CGTGTCTGGAAGCTTCCTTT (antisense; 2'-MOE modified, pattern not given here) [CTNN2B-808 MOE] | 0.426
20 | CTCTTGAAGCATCGTATCAC (antisense; 2'-MOE modified, pattern not given here) [CTNN2B-3648 MOE] | 0.791

Row | Sequence | cGAS 100 nM
21 | CTGTGATCTTGACATGCTGC (antisense; 2'-MOE modified, pattern not given here) [EGFR-2790 MOE] | 0.180
22 | CTTACTTTCCGAGGTGTCCA (antisense; 2'-MOE modified, pattern not given here) [CAMSAP1-1739 MOE] | 0.473
23 | GAACCACGTCTGCTCTAACA (antisense; 2'-MOE modified, pattern not given here) [CAMSAP1-1635 MOE] | 0.518
24 | GAGGTCTTGGCTTCGTGGAG (antisense; 2'-MOE modified, pattern not given here) [MB21D1-523 MOE] | 0.380
25 | GAGTCTCTGGAGCTTCCTCT (antisense; 2'-MOE modified, pattern not given here) [CAMSAP1-2456 MOE] | 0.250
26 | GATGCTCCTCGGTCTCCCTT (antisense; 2'-MOE modified, pattern not given here) [CAMSAP1-1850 MOE] | 0.413
27 | GATGGCCTCCCATCTCCTTC (antisense; 2'-MOE modified, pattern not given here) [HPRT-329 MOE] | 0.687
28 | GCCGCTTTTCTGTCTGGTTC (antisense; 2'-MOE modified, pattern not given here) [CTNN2B-311 MOE] | 0.401
29 | GCGACTATACGCGCAATATG (antisense; 2'-MOE modified, pattern not given here) [NC5 2′MOE] | 0.720
30 | GCGGAGGTCTTGGCTTCGTG (antisense; 2'-MOE modified, pattern not given here) [MB21D1-526 MOE] | 0.346
31 | GCGTATTATAGCCGATTAAC (antisense; 2'-MOE modified, pattern not given here) [NC1 2′MOE] | 0.504
32 | GCGTGTCTGGAAGCTTCCTT (antisense; 2'-MOE modified, pattern not given here) [CTNN2B-809 MOE] | 0.241
33 | GCTTCAGGCGCTGCCTTGCC (antisense; 2'-MOE modified, pattern not given here) [CAMSAP1-2709 MOE] | 0.510
34 | GGAGATTTCAGAGCAGCTTC (antisense; 2'-MOE modified, pattern not given here) [EGFR-4885 MOE] | 0.466
35 | GGAGCTTCGAGGCCCCAGGC (MOE modified, pattern not given here) [MB21D1-616 MOE] | 0.117
36 | GGAGGTCTTGGCTTCGTGGA (antisense; 2'-MOE modified, pattern not given here) [MB21D1-524 MOE] | 0.450
37 | GGCATCCACCACGTCGTCCA (antisense; 2'-MOE modified, pattern not given here) [EGFR-3266 MOE] | 0.478
38 | GGGAAAGGTTATGCAAGGTC (antisense; 2'-MOE modified, pattern not given here) [CTNN2B-916 MOE] | 0.156
39 | GGTCCATACCCAAGGCATCC (antisense; 2'-MOE modified, pattern not given here) [CTNN2B-2446 MOE] | 0.531
40 | GGTGGTCCACAACCCCTTTC (antisense; 2'-MOE modified, pattern not given here) [MB21D1-697 MOE] | 0.292

Row | Sequence | cGAS 100 nM
41 | GGTGGTGGCCACCCATCTCA (antisense; 2'-MOE modified, pattern not given here) [CTNN2B-2479 MOE] | 0.456
42 | GGTGTCCTTGCACGTGGCTT (antisense; 2'-MOE modified, pattern not given here) [EGFR-1016 MOE] | 0.315
43 | GTCCACATCCTGTGGCTCGT (antisense; 2'-MOE modified, pattern not given here) [CAMSAP1-2906 MOE] | 0.455
44 | GTCCTTGCACGTGGCTTCGT (antisense; 2'-MOE modified, pattern not given here) [EGFR-1013 MOE] | 0.374
45 | GTCTTGGCTTCGTGGAGCAG (antisense; 2'-MOE modified, pattern not given here) [MB21D1-520 MOE] | 0.291
46 | GTGTCCTTGCACGTGGCTTC (antisense; 2'-MOE modified, pattern not given here) [EGFR-1015 MOE] | 0.384
47 | GTGTCTTCATCGGCCCTGCC (antisense; 2'-MOE modified, pattern not given here) [CAMSAP1-2113 MOE] | 0.606
48 | TAGGCACTTTGCCTCCTTCT (antisense; 2'-MOE modified, pattern not given here) [EGFR-2859 MOE] | 0.378
49 | TAGTCAAGGGCATATCCTAC (antisense; 2'-MOE modified, pattern not given here) [HPRT-732 MOE] | 0.848
50 | TCAAAGGACTGAGGAAAGGG (antisense; 2'-MOE modified, pattern not given here) [CAMSAP1-6273 MOE] | 0.634
51 | TCCAACACTTCGTGGGGTCC (antisense; 2'-MOE modified, pattern not given here) [HPRT-667 MOE] | 0.799
52 | TCGCACTTCAGTCTGAGCAG (antisense; 2'-MOE modified, pattern not given here) [MB21D1-719 MOE] | 0.305
53 | TGTCCTTGCACGTGGCTTCG (antisense; 2'-MOE modified, pattern not given here) [EGFR-1014 MOE] | 0.515
54 | TGTCTTCATCGGCCCTGCCT (antisense; 2'-MOE modified, pattern not given here) [CAMSAP1-2112 MOE] | 0.557
55 | TGTGATGGCCTCCCATCTCC (antisense; 2'-MOE modified, pattern not given here) [HPRT-332 MOE] | 0.438
56 | TTCTGCAGCTTCCTTGTCCT (antisense; 2'-MOE modified, pattern not given here) [CTNN2B-2136 MOE] | 0.821
57 | TTGCACACTTCGTACCCAAA (antisense; 2'-MOE modified, pattern not given here) [CAMSAP1-4915 MOE] | 0.392
58 | TTGCCATGCTGGCTCGGACT (antisense; 2'-MOE modified, pattern not given here) [CAMSAP1-2584 MOE] | 0.518
59 | TTGGCTCGGCTTGCCTACTT (antisense; 2'-MOE modified, pattern not given here) [CAMSAP1-5594 MOE] | 0.295
